Measurements from US20260200849A1, “CATIONIC LIPIDS AND PREPARATION METHOD THEREOF” (RiboX Therapeutics HK Limited, priority 2024, published 2026).
Where “and” joins values, the source holds several entries; their conditions need not be identical. Equal values may be shown once. Read-outs that look alike come from different tables or passages of the source.

Legend:
[1] = LNP size and polydispersity index (PDI) by dynamic light scattering (Zetasizer); type: physicochemical; details: for Size (nm): Formulation No. 001 (Ionizable lipid:DSPC:cholesterol:DMG-PEG2000 = 50:10:38.5:1.5, N/P 6), RNA No. 331
Protocol: (§1) The LNP size and polydispersity index (PDI), determined by dynamic light scattering (DLS), and zeta potential were measured by a Zetasizer machine (Malvern). RNA concentration and encapsulation efficacy (EE %) were analyzed by the Quant-IT Ribogreen kit by calculating the percentage encapsulation at 100%—(RNA-LNPs/RNA-LNPs with Triton X-100).

[2] = RNA encapsulation efficacy (EE %) by Quant-IT Ribogreen kit; type: physicochemical; details: LNP
Protocol: as §1

Balb/c mice = test: In vivo expression by IV, 0.05 mg/kg luciferase RNA-LNPs, IVIS luminescence; details: IV 0.05 mg/kg, 24 h post injection, female Balb/c mice N=3, Formulation 001, RNA 331
Protocol: (§2) 7-8 week old, female Balb/c mice (N=3) were injected with 0.05 mg*kg−1 of RNA-LNPs encoding for firefly-luciferase by intravenous injection. At 24- and 72-hours post injection, animals were intraperitoneally injected with 15 mg/mi of Luciferin substrate and whole-body luminescence was determined by a bioluminescent in vivo imaging system (IVIS).
as §2, with “24-hours” for “24- and 72-hours”, “mg/ml” for “mg/mi”, “whole-body/liver/spleen” for “whole-body”

MCP-1 = test: In vivo tolerability by IV: serum MCP-1 by Luminex; set-up: species or system C57BL/6J mice; details: IV 1.0 mg/kg, male C57BL/6J mice N=3, Formulation 001, RNA 331
Protocol: (§3) 6-8 week old, male C57BL/6J mice (N=3) were injected with 1.0 mg*kg/1 of RNA-LNPs encoding for firefly-luciferase by intravenous injection. At 2- and 24-hours post injection, about 40 μL blood was harvested and immediately added to the procoagulant containing tube. Stand for 30 min at room temperature and then centrifuged at 2500 g×10 min to obtain serum. About 15 μL serum samples were aliquoted for cytokine (MCP-1 and IL-6) detection by Luminex (ProcartaPlex Mouse 2-plex, Thermo). PBS group as negative control.
as §3, with “mg*kg−1” for “mg*kg/1”

IL-6 = test: In vivo tolerability by IV: serum IL-6 by Luminex; set-up: species or system C57BL/6J mice; details: IV 1.0 mg/kg, male C57BL/6J mice N=3, Formulation 001, RNA 331
Protocol: as §3
as §3, with “mg*kg−1” for “mg*kg/1”

C57BL/6J mice = test: In vivo expression by IV, 1.0 mg/kg luciferase RNA-LNPs, whole-body and organ IVIS luminescence; details: IV 1.0 mg/kg, 24 h post injection, male C57BL/6J mice N=3, Formulation 001, RNA 331
Protocol: (§4) 6-8 week old, male C57BL/6J mice (N=3) were injected with 1.0 mg*kg−1 of RNA-LNPs encoding for firefly-luciferase by intravenous injection. At 24-hours post injection, animals were intraperitoneally injected with 15 mg/ml of Luciferin substrate and whole-body/liver/spleen/kidney/small intestine/large intestine luminescence were determined by a bioluminescent in vivo imaging system (IVIS).
as §4, with “mg/nil” for “mg/ml”

[3] = In vivo lipid metabolism by IV: ionizable lipid concentration in plasma and liver by LC-MS/MS; set-up: species or system Sprague-Dawley (SD) rats; details: IV 0.15 mg/kg RNA-LNPs (hEPO), male SD rats, individual animals N=3
Protocol: In Vivo Lipid Metabolism by IV 7-8 week old, male Sprague-Dawley (SD) rats (N=3) were injected with 0.15 mg*kg−1 of RNA-LNPs encoding for hEPO by intravenous injection. At 1-/6-/96-/168-hours post injection, about 100 μL blood will be harvested and immediately added to the EDTAK2 containing tube. Place on wet ice and then centrifuged at 3000 g×5 min to obtain plasma. 30 μL plasma will be aliquoted to the 1.5 mL tubes. At terminal 6-/168-hours post injection, the rats will be euthanized with CO2, hemorrhaged immediately with cardiac puncture, respectively. The livers were harvested, weighed and washed with saline, then put into 50 ml centrifuge tube placed in liquid nitrogen, then transferred into wet ice, and finally stored at −80° C. immediately. Both plasma and liver samples were used for ionizable lipid concentration quantification by LC-MS/MS. The lower limit of quantitation (LLOQ) is 1 ng/mL in plasma or 11 ng/g in liver. BQL—Below the lower limit of quantitation (LLOQ).

[4] = Formulation No. 001, RNA No. 331
[5] = Formulation No. 001, RNA No. 019 (hEPO)
[6] = male, Sprague-Dawley, rat, liver, iv, 0.15 mg/kg, 6 h post injection, read-out: Liver (ng/g), ionizable lipid concentration
[7] = male, Sprague-Dawley, rat, plasma, iv, 0.15 mg/kg, 1 h post injection
[8] = male, Sprague-Dawley, rat, plasma, iv, 0.15 mg/kg, 6 h post injection, read-out: Plasma (ng/mL), ionizable lipid concentration

SMILES | PDI [1, 4] | Size [1, 4] | EE (%) [2, 4] | Liver (p/s) (Mean) (Balb/c mice) | Spleen (p/s) (Mean) (Balb/c mice) | Whole body (p/s) (Mean) (Balb/c mice) | MCP-1 at 2 h (MCP-1) | MCP-1 at 24 h (MCP-1) | IL-6 at 2 h (IL-6) | IL-6 at 24 h (IL-6) | Kidney (p/s) (C57BL/6J mice) | Large intestine (p/s) (C57BL/6J mice) | Liver (p/s) (C57BL/6J mice) | Small intestine (p/s) (C57BL/6J mice) | Spleen (p/s) (C57BL/6J mice) | Whole body (p/s) (C57BL/6J mice) | PDI [1, 5] | Size [1, 5] | EE (%) [2, 5] | Plasma (ng/mL), ionizable lipid concentration ([3]; 1 h post injection) | further results
CCCCCCCCCCC(CCCCCCCC)COC(=O)CCCCCOC(=O)NC(COC(=O)NCCN(C)C)C(=O)OCCCCCC(=O)OCC(CCCCCCCC)CCCCCCCCCC (centres unmarked) [Lipid 1017] | 0.07 | 69.70 nm | 97.70% | 3.91E+07 p/s | 1.30E+07 p/s | 2.45E+08 p/s | 2430 pg/mL | 94.6 pg/mL | 12.8 pg/mL | 0.792 pg/mL | 9.00E+06 p/s | 2.09E+07 p/s | 9.32E+08 p/s | 1.93E+08 p/s | 4.32E+08 p/s | 1.13E+09 p/s | – | – | – | – | –
CCCCCCCCCCC(CCCCCCCC)COC(=O)CCCCCOC(=O)NC(COC(=O)NCCN1CCCC1)C(=O)OCCCCCC(=O)OCC(CCCCCCCC)CCCCCCCCCC (centres unmarked) [Lipid 1019] | 0.10 | 68.78 nm | 97.11% | 3.60E+07 p/s | 2.21E+07 p/s | 2.46E+08 p/s | 3720 pg/mL | 401 pg/mL | 404 pg/mL | 2.02 pg/mL | 1.46E+07 p/s | 2.12E+08 p/s | 1.20E+09 p/s | 5.41E+08 p/s | 4.98E+08 p/s | 2.49E+09 p/s | – | – | – | – | –
CCCCCCCCCCC(CCCCCCCC)COC(=O)CCCCCOC(=O)NC(COC(=O)NCCN1CCCCC1)C(=O)OCCCCCC(=O)OCC(CCCCCCCC)CCCCCCCCCC (centres unmarked) [Lipid 1020] | 0.01 | 57.55 nm | 94.34% | 1.38E+08 p/s | 2.67E+07 p/s | 4.91E+08 p/s | 1930 pg/mL | 180 pg/mL | 90.5 pg/mL | 1.07 pg/mL | 5.29E+07 p/s | 2.16E+08 p/s | 1.90E+10 p/s | 1.62E+09 p/s | 1.14E+09 p/s | 9.25E+09 p/s | 0.06 | 55.95 nm | 97.29% | 2412 ng/mL and 2622 ng/mL | Liver (ng/g), ionizable lipid concentration ([3]; 6 h post injection): 38824 ng/g and 43259 ng/g; Plasma (ng/mL), ionizable lipid concentration ([3]; 6 h post injection): 1241 ng/mL and 1471 ng/mL; Plasma (ng/mL), ionizable lipid concentration ([3]; 96 h post injection): 31.2 ng/mL and 26.1 ng/mL; Liver (ng/g), ionizable lipid concentration ([3]; 168 h post injection): 2432 ng/g and 1960 ng/g; Plasma (ng/mL), ionizable lipid concentration ([3]; 168 h post injection): 7.35 ng/mL and 11.3 ng/mL and 4.48 ng/mL; concentration at 6 h [3, 6]: 36500 ng/g; concentration at 168 h ([3]; male, Sprague-Dawley, rat, liver, iv, 0.15 mg/kg, 168 h post injection, read-out: Liver (ng/g), ionizable lipid concentration): 2890 ng/g; concentration at 1 h [3, 7]: 2420 ng/mL; concentration at 6 h [3, 8]: 1210 ng/mL; concentration at 96 h ([3]; male, Sprague-Dawley, rat, plasma, iv, 0.15 mg/kg, 96 h post injection): 33.6 ng/mL
CCCCCCCCCCC(CCCCCCCC)COC(=O)CCCCCOC(=O)NC(COC(=O)NCCN1CCCCCC1)C(=O)OCCCCCC(=O)OCC(CCCCCCCC)CCCCCCCCCC (centres unmarked) [Lipid 1021] | 0.05 | 57.55 nm | 93.55% | 1.19E+08 p/s | 5.32E+07 p/s | 8.26E+08 p/s | 1560 pg/mL | 166 pg/mL | 28.6 pg/mL | 0.639 pg/mL | 5.69E+07 p/s | 1.91E+08 p/s | 1.88E+10 p/s | 1.60E+09 p/s | 6.45E+08 p/s | 1.48E+10 p/s | 0.04 | 57.55 nm | 96.60% | 2558 ng/mL and 2938 ng/mL | Liver (ng/g), ionizable lipid concentration ([3]; 6 h post injection): 33582 ng/g and 37570 ng/g; Plasma (ng/mL), ionizable lipid concentration ([3]; 6 h post injection): 976 ng/mL and 1347 ng/mL; Plasma (ng/mL), ionizable lipid concentration ([3]; 96 h post injection): 23.9 ng/mL and 5.16 ng/mL and 9.41 ng/mL; Liver (ng/g), ionizable lipid concentration ([3]; 168 h post injection): 3103 ng/g and 1228 ng/g and 1508 ng/g; Plasma (ng/mL), ionizable lipid concentration ([3]; 168 h post injection): 6.98 ng/mL and 1.89 ng/mL; concentration at 6 h [3, 6]: 48100 ng/g; concentration at 1 h [3, 7]: 3280 ng/mL; concentration at 6 h [3, 8]: 1480 ng/mL
CCCCCCCC/C=C\CCCCCCCCOC(=O)NC(COC(=O)NCCN1CCCCCC1)C(=O)OCCCCCC(=O)OCC(CCCCCCCC)CCCCCCCCCC (centres unmarked) [Lipid 1041] | 0.08 | – | 90.29% | – | – | – | 1180 pg/mL | 68.1 pg/mL | 51.2 pg/mL | 4.53 pg/mL | 6.14E+06 p/s | 1.74E+07 p/s | 1.08E+09 p/s | 1.96E+08 p/s | 1.93E+08 p/s | 8.03E+08 p/s | – | – | – | – | Size (nm) [1]: 59.33 nm
CCCCCCCCCCC(CCCCCCCC)COC(=O)CCCCCOC(=O)NC(COC(=O)NCCN1CCCCCC1)C(=O)OCCCCCCCC(=O)OC(CCCCCCCC)CCCCCCCC (centres unmarked) [Lipid 1072] | 0.04 | – | 96.51% | – | – | – | 554 pg/mL | 35.1 pg/mL | 2.07 pg/mL | 0.947 pg/mL | 8.41E+06 p/s | 1.22E+07 p/s | 1.40E+10 p/s | 2.07E+08 p/s | 1.95E+08 p/s | 6.81E+09 p/s | – | – | – | – | Size (nm) [1]: 52.67 nm
